Measurements published in patent US9580390B2, “Indazole compounds as kinase inhibitors and method of treating cancer with same” (University Health Network, priority 2011, dated 2017).
Read-outs that look alike come from different tables or passages of the source.

Tests used:
[1] = molecular target: T1, human TTK (Homo sapiens, UniProt P33981); assay: TTK inhibition assay (indirect ELISA); format: biochemical; conditions: read-out: TTK IC50 Range
T1 construct: amino terminal GST fusion of full length human TTK; purchased Invitrogen
T1 sequence (P33981 1-857): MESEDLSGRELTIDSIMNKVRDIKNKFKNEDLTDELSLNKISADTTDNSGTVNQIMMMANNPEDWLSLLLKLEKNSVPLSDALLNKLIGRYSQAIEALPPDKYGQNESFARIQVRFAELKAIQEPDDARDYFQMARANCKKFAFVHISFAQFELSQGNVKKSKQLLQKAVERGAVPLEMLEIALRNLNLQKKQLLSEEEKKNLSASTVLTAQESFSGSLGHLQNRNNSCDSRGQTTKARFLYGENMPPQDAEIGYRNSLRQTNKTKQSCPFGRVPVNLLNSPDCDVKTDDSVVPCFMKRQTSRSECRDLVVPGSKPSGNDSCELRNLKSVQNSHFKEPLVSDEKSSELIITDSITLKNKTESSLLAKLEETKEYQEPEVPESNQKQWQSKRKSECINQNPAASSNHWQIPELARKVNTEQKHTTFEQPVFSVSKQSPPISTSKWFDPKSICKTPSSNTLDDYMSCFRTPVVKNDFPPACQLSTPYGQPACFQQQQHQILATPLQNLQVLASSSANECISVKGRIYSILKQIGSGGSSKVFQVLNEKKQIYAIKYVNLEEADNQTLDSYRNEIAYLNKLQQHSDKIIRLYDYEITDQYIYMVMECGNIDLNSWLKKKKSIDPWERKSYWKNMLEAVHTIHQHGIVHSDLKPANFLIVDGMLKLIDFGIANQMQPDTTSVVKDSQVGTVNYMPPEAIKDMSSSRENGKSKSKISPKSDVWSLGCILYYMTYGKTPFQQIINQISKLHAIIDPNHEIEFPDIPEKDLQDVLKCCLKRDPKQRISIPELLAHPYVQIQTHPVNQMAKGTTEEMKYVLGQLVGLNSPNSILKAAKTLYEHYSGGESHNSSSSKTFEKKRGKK

[2] = tested on: colon cancer cells (HCT116); assay: Cancer cell line growth inhibition (SRB assay); format: cell-based; conditions: Homo sapiens, HCT-116, read-out: Cancer Cell Line GI50 Range HCT116
[3] = tested on: ovarian cancer cells (PA-1); assay: Cancer cell line growth inhibition (SRB assay); format: cell-based; conditions: read-out: Cancer Cell Line GI50 Range PA-1
[4] = HCT116 colon cancer cells, SRB assay
[5] = PA-1 ovarian cancer cells, SRB assay

With `CC(C)C(NC(=O)c1ccc2[nH]nc(-c3ccc(OC4CC5COCC(C4)N5C)cc3)c2c1)c1ccccc1Cl` [Example A393, N-(1-(2-chlorophenyl)-2-mcthylpropyl)-3-(4-(((1R,5S,7s)-9-methy]-3-oxa-9-azabicyclo[3.3.1]nonan-7-yl)oxy)phenyl)-1H-indazole-5-carboxamide] as the compound, how does the IC50 [1] read?
The IC50 was under 0.1 µM.

And the GI50 [2]?
Its GI50 is under 0.1 µM.

And the GI50 ([3]; Homo sapiens, PA-1)?
Its GI50 is under 0.1 µM.

Which results are given for `CN1CCC(Oc2ccc(-c3n[nH]c4ccc(C(=O)NCC5(c6ccccc6)CC5(C)C)cc34)cc2)CC1` (stereo not drawn) [Example A431, N-((2,2-dimethyl-1-phenylcyclopropyl)methyl)-3-(4-((1-methylpiperidin-4-yl)oxy)phenyl)-1H-indazole-5-carboxamide]?
IC50 [1]: < 0.1 µM; GI50 [2, 4]: 0.1 to 0.5 µM; GI50 [3, 5]: 0.1 to 0.5 µM

With `CN1CCC(Oc2ccc(-c3n[nH]c4ccc(C(=O)NCC5(N6CCOCC6)CCCC5)cc34)cc2)CC1` [Example A428, 3-(4-((1-methylpiperidin-4-yl)oxy)phenyl)-N-((1-morpholinocyclopentyl)methyl)-1H-indazole-5-carboxamide] as the compound, how does the IC50 [1] read?
Its IC50 is under 0.1 µM.

And the GI50 [2, 4]?
Its GI50 is 0.1 to 0.5 µM.

What about the GI50 [3, 5] of the same compound?
The GI50 was 0.1 to 0.5 µM.

What does the source list for `CN1CCC(Oc2ccc(-c3n[nH]c4ccc(C(=O)NCC5(c6ccsc6)CCCCC5)cc34)cc2)CC1` [Example A472, 3-(4-((1-methylpiperidin-4-yl)oxy)phenyl)-N-((1-(thiophen-3-yl)cyclohexyl)methyl)-1H-indazole-5-carboxamide]?
IC50 [1]: < 0.1 µM; GI50 [2, 4]: 0.1 to 0.5 µM; GI50 [3, 5]: 0.1 to 0.5 µM

`O=C(N[C@H](c1ccccc1)C1CC1)c1ccc2[nH]nc(-c3ccc(N4CCN(C5COC5)CC4)cc3)c2c1` [Example A399, (S)-N-(cyclopropyl(phenyl)methyl)-3-(4-(4-(oxetan-3-yl)piperazin-1-yl)phenyl)-1H-indazole-5-carboxamide] was tested. Which IC50 [1] did it give?
The IC50 was under 0.1 µM.

And the GI50 [2]?
Its GI50 is under 0.1 µM.

What about the GI50 ([3]; Homo sapiens, PA-1) of the same compound?
The GI50 was 0.1 to 0.5 µM.

With `O=C(N[C@H](c1ccccc1)C1CC1)c1ccc2[nH]nc(-c3ccc(OC4CCN(C(=O)CO)CC4)cc3)c2c1` [Example A382, (S)-N-(cyclopropyl(phenyl)methyl)-3-(4-((1-(2-hydroxyacetyl)piperidin-4-yl)oxy)phenyl)-1H-indazole-5-carboxamide] as the compound, how does the IC50 [1] read?
The IC50 was under 0.1 µM.

What about the GI50 [2] of the same compound?
The GI50 was under 0.1 µM.

And the GI50 ([3]; Homo sapiens, PA-1)?
The GI50 was under 0.1 µM.

What does the source list for `O=C(N[C@H](c1ccccn1)C1CCCC1)c1ccc2[nH]nc(-c3ccc(OC4CCN(CCO)CC4)cc3)c2c1` [Example A233, (S)-N-(cyclopentyl(pyridin-2-yl)methyl)-3-(4-((1-(2-hydroxyethyl)piperidin-4-yl)oxy)phenyl)-1H-indazole-5-carboxamide]?
IC50 [1]: < 0.1 µM; GI50 [2]: < 0.1 µM; GI50 ([3]; Homo sapiens, PA-1): < 0.1 µM

What does the source list for `O=CN1CCC(Oc2ccc(-c3n[nH]c4ccc(C(=O)NC(c5ccsc5)C5CCC5)cc34)cc2)CC1` (stereo not drawn) [Example A330, N-(cyclobutyl(thiophen-3-yl)methyl)-3-(4-((1-formylpiperidin-4-yl)oxy)phenyl)-1H-indazole-5-carboxamide]?
IC50 [1]: < 0.1 µM; GI50 [2]: < 0.1 µM; GI50 ([3]; Homo sapiens, PA-1): < 0.1 µM

What does the source list for `CN1CCC(Oc2ccc(-c3n[nH]c4ccc(C(=O)NCC5(c6ccccc6F)CCOCC5)cc34)cc2)CC1` [Example A476, N-((4-(2-fluorophenyl)tetrahydro-2H-pyran-4-yl)methyl)-3-(4-((1-methylpiperidin-4-yl)oxy)phenyl)-1H-indazole-5-carboxamide]?
IC50 [1]: < 0.1 µM; GI50 [2, 4]: 0.1 to 0.5 µM; GI50 [3, 5]: 0.1 to 0.5 µM

What does the source list for `CC(C)CC(NC(=O)c1ccc2[nH]nc(-c3ccc(OC4CCN(C5COC5)CC4)cc3)c2c1)c1ccccc1` (stereo not drawn) [Example A290, N-(3-methyl-1-phenylbutyl)-3-(4-((1-(oxetan-3-yl)piperidin-4-yl)oxy)phenyl)-1H-indazole-5-carboxamide]?
IC50 [1]: < 0.1 µM; GI50 [2]: 0.1 to 0.5 µM; GI50 ([3]; Homo sapiens, PA-1): 0.1 to 0.5 µM

Which IC50 [1] does the source give for `O=C(NCC1(N2CCOCC2)CCCCC1)c1ccc2[nH]nc(-c3ccc(OC4CCN(CCO)CC4)cc3)c2c1` [Example A432, 3-(4-((1-(2-hydroxyethyl)piperidin-4-yl)oxy)phenyl)-N-((1-morpholinocyclohexyl)methyl)-1H-indazole-5-carboxamide] here?
The IC50 was under 0.1 µM.

And the GI50 [2]?
The GI50 was under 0.1 µM.

What about the GI50 ([3]; Homo sapiens, PA-1) of the same compound?
Its GI50 is under 0.1 µM.

What does the source list for `CN1CCC(Oc2ccc(-c3n[nH]c4ccc(C(=O)NCC5(N6CCOCC6)CCC(F)(F)CC5)cc34)cc2)CC1` [Example A458, N-((4,4-difluoro-1-morpholinocyclohexyl)methyl)-3-(4-((1-methylpiperidin-4-yl)oxy)phenyl)-1H-indazole-5-carboxamide]?
IC50 [1]: < 0.1 µM; GI50 [2, 4]: 0.1 to 0.5 µM; GI50 [3, 5]: 0.1 to 0.5 µM

What does the source list for `CC(C)[C@H](NC(=O)c1ccc2[nH]nc(-c3ccc(OC4CCN(C5COC5)CC4)nc3)c2c1)c1ccccc1Cl` [Example A294, (S)-N-(1-(2-chlorophenyl)-2-methylpropyl)-3-(6-((1-(oxetan-3-yl)piperidin-4-yl)oxy)pyridin-3-yl)-1H-indazole-5-carboxamide]?
IC50 [1]: < 0.1 µM; GI50 [2]: 0.1 to 0.5 µM; GI50 ([3]; Homo sapiens, PA-1): 0.1 to 0.5 µM

`O=C(NC(c1ccccn1)C1CCOCC1)c1ccc2[nH]nc(-c3ccc(OC4CCN(C5COC5)CC4)cc3)c2c1` (stereo not drawn) [Example A293, 3-(4-((1-(oxetan-3-yl)piperidin-4-yl)oxy)phenyl)-N-(pyridin-2-yl(tetrahydro-2H-pyran-4-yl)methyl)-1H-indazole-5-carboxamide] was tested. Which IC50 [1] did it give?
Its IC50 is under 0.1 µM.

And the GI50 [2]?
The GI50 was 0.1 to 0.5 µM.

And the GI50 ([3]; Homo sapiens, PA-1)?
Its GI50 is 0.1 to 0.5 µM.

What does the source list for `CN1CCC(Oc2ccc(-c3n[nH]c4ccc(C(=O)NCC5(c6ccccc6)CCCCC5)cc34)cc2)CC1` [Example A470, 3-(4-((1-methylpiperidin-4-yl)oxy)phenyl)-N-((1-phenylcyclohexyl)methyl)-1H-indazole-5-carboxamide]?
IC50 [1]: < 0.1 µM; GI50 [2, 4]: 0.1 to 0.5 µM; GI50 [3, 5]: 0.1 to 0.5 µM

How did the IC50 [1] turn out when `C[C@@H](O)CN1CCC(Oc2ccc(-c3n[nH]c4ccc(C(=O)N[C@H](c5ccccn5)C5CCCC5)cc34)cc2)CC1` [Example A230, N-((S)-cyclopentyl(pyridin-2-yl)methyl)-3-(4-((1-((R)-2-hydroxypropyl)piperidin-4-yl)oxy)phenyl)-1H-indazole-5-carboxamide] was run?
The IC50 was under 0.1 µM.

And the GI50 [2]?
Its GI50 is under 0.1 µM.

And the GI50 ([3]; Homo sapiens, PA-1)?
The GI50 was under 0.1 µM.

With `O=C(NC(c1ccccn1)C1CC1)c1ccc2[nH]nc(-c3ccc(N4CCN(CCO)CC4)cc3)c2c1` (stereo not drawn) [Example A384, N-(cyclopropyl(pyridin-2-yl)methyl)-3-(4-(4-(2-hydroxyethyl)piperazin-1-yl)phenyl)-1H-indazole-5-carboxamide] as the compound, how does the IC50 [1] read?
The IC50 was under 0.1 µM.

What about the GI50 [2] of the same compound?
Its GI50 is 0.1 to 0.5 µM.

And the GI50 ([3]; Homo sapiens, PA-1)?
Its GI50 is 0.1 to 0.5 µM.

For `CC(C)(O)C1CCN(c2ccc(-c3n[nH]c4ccc(C(=O)N[C@H](c5ccccn5)C5CC5)cc34)cc2)CC1` [Example A351, (S)-N-(cyclopropyl(pyridin-2-yl)methyl)-3-(4-(4-(2-hydroxypropan-2-yl)piperidin-1-yl)phenyl)-1H-indazole-5-carboxamide], which IC50 [1] is on record?
Its IC50 is under 0.1 µM.

What about the GI50 [2] of the same compound?
The GI50 was under 0.1 µM.

What about the GI50 ([3]; Homo sapiens, PA-1) of the same compound?
Its GI50 is under 0.1 µM.

How did the IC50 [1] turn out when `CC(C)(O)CN1CCC(Oc2ccc(-c3n[nH]c4ccc(C(=O)N[C@H](c5ccccn5)C5CCCC5)cc34)cc2)CC1` [Example A231, (S)-N-(cyclopentyl(pyridin-2-yl)methyl)-3-(4-((1-(2-hydroxy-2-methylpropyl)piperidin-4-yl)oxy)phenyl)-1H-indazole-5-carboxamide] was run?
The IC50 was under 0.1 µM.

And the GI50 [2]?
The GI50 was under 0.1 µM.

What about the GI50 ([3]; Homo sapiens, PA-1) of the same compound?
The GI50 was under 0.1 µM.

With `CN1C2CCC1CC(Oc1ccc(-c3n[nH]c4ccc(C(=O)N[C@H](c5ccccn5)C5CC5)cc34)cc1)C2` (stereo partly drawn) [Example A397, N-((S)-cyclopropyl(pyridin-2-yl)methyl)-3-(4-((8-methyl-8-azabicyclo[3.2.1]octan-3-yl)oxy)phenyl)-1H-indazole-5-carboxamide] as the compound, how does the IC50 [1] read?
Its IC50 is under 0.1 µM.

And the GI50 [2]?
The GI50 was under 0.1 µM.

What about the GI50 ([3]; Homo sapiens, PA-1) of the same compound?
Its GI50 is under 0.1 µM.

For `C[C@@H]1CN(c2ccc(-c3n[nH]c4ccc(C(=O)NCC5(N6CCOCC6)CCCCC5)cc34)cc2)C[C@H](C)O1` [Example A454, 3-(4-((2S,6R)-2,6-dimethylmorpholino)phenyl)-N-((1-morpholinocyclohexyl)methyl)-1H-indazole-5-carboxamide], which IC50 [1] is on record?
Its IC50 is under 0.1 µM.

And the GI50 [2, 4]?
The GI50 was 0.1 to 0.5 µM.

And the GI50 [3, 5]?
Its GI50 is 0.1 to 0.5 µM.

How did the IC50 [1] turn out when `CC(C)(C)OC(=O)N1CCC(Oc2ccc(-c3n[nH]c4ccc(NC(=O)C(c5ccsc5)N5CCCC5)cc34)cc2)CC1` (stereo not drawn) [Example A115, tert-butyl 4-(4-(5-(2-(pyrrolidin-1-yl)-2-(thiophen-3-yl)acetamido)-1H-indazol-3-yl)phenoxy)piperidine-1-carboxylate] was run?
The IC50 was 0.1 to 0.5 µM.

What about the GI50 [2, 4] of the same compound?
Its GI50 is over 0.5 µM.

And the GI50 [3, 5]?
Its GI50 is over 0.5 µM.
